Key:
Assay in all cases: radiometric filter-binding kinase assay
RPS6KA1 KD1 KD2 (human) = RPS6KA1 KD1 KD2 (human) (UniProt Q15418)
NEK6 (human) = NEK6 (human) (UniProt Q9HC98)
[1] = tested on: RPS6KB1 (human), P23443 [T412E]
CSNK2A1 (human) = CSNK2A1 (human) (UniProt P68400)
[2] = target: STK11 CAB39 STRADA (human) (UniProt Q9Y376+Q7RTN6+Q15831)
MAPKAPK3 (human) = MAPKAPK3 (human) (UniProt Q16644)
MARK3 (human) = MARK3 (human) (UniProt P27448)
MAPK11 (human) = MAPK11 (human) (UniProt Q15759)
INSR (human) = INSR (human) (UniProt P06213)
INSRR (human) = INSRR (human) (UniProt P14616)
INSRR (human), sequence (P14616 whole entry, looked up): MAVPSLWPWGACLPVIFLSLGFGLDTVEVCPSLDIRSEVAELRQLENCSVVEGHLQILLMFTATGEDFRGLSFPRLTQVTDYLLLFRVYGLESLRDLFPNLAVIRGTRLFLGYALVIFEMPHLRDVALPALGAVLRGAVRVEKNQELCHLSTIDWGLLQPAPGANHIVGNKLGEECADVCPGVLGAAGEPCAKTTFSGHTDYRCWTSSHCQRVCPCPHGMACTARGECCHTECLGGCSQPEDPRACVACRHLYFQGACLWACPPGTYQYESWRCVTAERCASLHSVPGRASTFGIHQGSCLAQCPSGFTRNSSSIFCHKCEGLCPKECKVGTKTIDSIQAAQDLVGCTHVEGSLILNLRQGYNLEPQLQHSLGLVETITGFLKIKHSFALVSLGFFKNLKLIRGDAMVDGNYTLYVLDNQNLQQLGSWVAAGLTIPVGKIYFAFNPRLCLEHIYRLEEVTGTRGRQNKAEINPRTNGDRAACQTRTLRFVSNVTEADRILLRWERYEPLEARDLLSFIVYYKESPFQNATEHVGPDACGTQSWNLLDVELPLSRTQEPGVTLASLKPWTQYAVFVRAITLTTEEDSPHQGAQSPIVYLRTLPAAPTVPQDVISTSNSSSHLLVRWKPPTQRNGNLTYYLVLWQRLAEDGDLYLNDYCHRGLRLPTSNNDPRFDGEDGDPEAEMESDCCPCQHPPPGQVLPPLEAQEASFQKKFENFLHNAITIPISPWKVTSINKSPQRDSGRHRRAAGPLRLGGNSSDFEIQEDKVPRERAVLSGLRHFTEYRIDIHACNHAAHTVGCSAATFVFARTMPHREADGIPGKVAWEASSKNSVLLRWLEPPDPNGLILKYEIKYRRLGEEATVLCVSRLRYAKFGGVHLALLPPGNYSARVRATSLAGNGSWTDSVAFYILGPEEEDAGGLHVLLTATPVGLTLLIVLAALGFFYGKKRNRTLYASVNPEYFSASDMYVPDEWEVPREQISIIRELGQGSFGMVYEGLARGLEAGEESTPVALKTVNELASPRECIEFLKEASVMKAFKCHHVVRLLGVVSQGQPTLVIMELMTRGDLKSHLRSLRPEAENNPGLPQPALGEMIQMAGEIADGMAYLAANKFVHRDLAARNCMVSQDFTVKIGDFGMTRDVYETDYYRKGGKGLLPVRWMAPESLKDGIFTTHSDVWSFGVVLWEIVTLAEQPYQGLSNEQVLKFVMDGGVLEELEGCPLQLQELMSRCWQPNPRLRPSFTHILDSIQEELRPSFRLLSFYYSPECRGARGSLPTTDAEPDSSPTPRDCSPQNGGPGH

JAK2 JH1 JH2 (human) = JAK2 JH1 JH2 (human) (UniProt O60674)
CSNK1D (human) = CSNK1D (human) (UniProt P48730)
RIPK2 (human) = RIPK2 (human) (UniProt O43353)
NTRK1 (human) = NTRK1 (human) (UniProt P04629)
AURKA (human) = AURKA (human) (UniProt O14965)
MAPK15 (human) = MAPK15 (human) (UniProt Q8TD08)
DYRK2 (human) = DYRK2 (human) (UniProt Q92630)
YES1 (human) = YES1 (human) (UniProt P07947)
YES1 (human), sequence (P07947 whole entry, looked up): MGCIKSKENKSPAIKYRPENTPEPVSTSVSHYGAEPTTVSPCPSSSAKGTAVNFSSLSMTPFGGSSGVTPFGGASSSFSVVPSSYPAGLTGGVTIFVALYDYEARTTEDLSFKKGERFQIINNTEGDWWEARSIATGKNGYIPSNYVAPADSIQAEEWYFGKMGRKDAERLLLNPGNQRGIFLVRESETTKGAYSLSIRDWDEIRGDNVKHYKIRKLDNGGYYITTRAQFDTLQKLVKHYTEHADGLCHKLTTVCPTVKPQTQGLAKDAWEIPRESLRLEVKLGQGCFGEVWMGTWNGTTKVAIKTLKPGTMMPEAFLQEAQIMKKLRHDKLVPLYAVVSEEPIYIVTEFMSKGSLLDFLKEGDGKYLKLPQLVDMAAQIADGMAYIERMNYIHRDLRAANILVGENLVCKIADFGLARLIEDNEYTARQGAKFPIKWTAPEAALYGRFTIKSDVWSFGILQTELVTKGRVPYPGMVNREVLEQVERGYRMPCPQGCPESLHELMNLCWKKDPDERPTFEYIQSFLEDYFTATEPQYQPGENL

MAP3K1 (human) = MAP3K1 (human) (UniProt Q13233)
HIPK2 (human) = HIPK2 (human) (UniProt Q9H2X6)
HIPK1 (human) = HIPK1 (human) (UniProt Q86Z02)
FLT1 (human) = FLT1 (human) (UniProt P17948)
IRAK4 (human) = IRAK4 (human) (UniProt Q9NWZ3)
PRKCA (human) = PRKCA (human) (UniProt P17252)
NEK2 (human) = NEK2 (human) (UniProt P51955)
MAPK1 (human) = MAPK1 (human) (UniProt P28482)
MAPK14 (human) = MAPK14 (human) (UniProt Q16539)
RPS6KA5 KD1 KD2 (human) = RPS6KA5 KD1 KD2 (human) (UniProt O75582)
RPS6KA5 KD1 KD2 (human), sequence (O75582 whole entry, looked up): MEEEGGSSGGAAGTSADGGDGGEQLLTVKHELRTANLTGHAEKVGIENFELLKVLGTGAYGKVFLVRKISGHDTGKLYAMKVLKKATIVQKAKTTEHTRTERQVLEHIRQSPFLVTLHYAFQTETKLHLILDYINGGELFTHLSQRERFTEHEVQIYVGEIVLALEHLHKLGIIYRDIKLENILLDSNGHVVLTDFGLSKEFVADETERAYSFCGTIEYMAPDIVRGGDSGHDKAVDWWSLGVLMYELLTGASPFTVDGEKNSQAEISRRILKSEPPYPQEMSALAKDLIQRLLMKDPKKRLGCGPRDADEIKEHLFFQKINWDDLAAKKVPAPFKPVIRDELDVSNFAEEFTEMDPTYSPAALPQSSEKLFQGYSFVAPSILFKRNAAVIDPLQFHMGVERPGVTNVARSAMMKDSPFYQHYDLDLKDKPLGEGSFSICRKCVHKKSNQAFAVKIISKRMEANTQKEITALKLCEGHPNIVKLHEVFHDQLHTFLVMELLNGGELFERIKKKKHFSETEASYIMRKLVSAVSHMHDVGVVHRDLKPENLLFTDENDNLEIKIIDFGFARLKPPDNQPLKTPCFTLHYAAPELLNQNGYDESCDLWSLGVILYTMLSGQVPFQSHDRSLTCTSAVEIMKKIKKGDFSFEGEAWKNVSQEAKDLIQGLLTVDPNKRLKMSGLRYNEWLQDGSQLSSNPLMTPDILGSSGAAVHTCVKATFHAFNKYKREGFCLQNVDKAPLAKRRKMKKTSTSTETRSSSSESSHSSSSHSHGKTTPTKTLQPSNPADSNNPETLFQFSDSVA

BTK (human) = BTK (human) (UniProt Q06187)
[3] = tested on: AKT2 (human), P31751 [S474D]
AKT2 (human), P31751 [S474D], sequence (P31751 whole entry S474D, looked up): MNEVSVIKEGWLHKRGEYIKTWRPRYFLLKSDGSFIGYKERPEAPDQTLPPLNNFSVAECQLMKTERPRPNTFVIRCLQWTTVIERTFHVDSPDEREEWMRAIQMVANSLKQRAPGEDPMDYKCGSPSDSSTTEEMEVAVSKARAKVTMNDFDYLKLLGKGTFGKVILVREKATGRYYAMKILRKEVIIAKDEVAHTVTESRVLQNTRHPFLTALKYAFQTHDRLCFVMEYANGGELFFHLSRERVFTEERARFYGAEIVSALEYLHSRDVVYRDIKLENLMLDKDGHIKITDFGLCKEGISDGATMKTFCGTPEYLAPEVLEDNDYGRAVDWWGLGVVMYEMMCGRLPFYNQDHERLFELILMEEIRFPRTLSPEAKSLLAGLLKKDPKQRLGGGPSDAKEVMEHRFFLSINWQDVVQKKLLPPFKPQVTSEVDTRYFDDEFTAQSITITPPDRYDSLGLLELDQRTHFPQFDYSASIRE

MKNK2 (human) = MKNK2 (human) (UniProt Q9HBH9)
MARK4 (human) = MARK4 (human) (UniProt Q96L34)
CLK2 (human) = CLK2 (human) (UniProt P49760)
SRPK1 (human) = SRPK1 (human) (UniProt Q96SB4)
MAP3K9 (human) = MAP3K9 (human) (UniProt P80192)

CSNK2A1 (human), sequence (P68400 whole entry, looked up): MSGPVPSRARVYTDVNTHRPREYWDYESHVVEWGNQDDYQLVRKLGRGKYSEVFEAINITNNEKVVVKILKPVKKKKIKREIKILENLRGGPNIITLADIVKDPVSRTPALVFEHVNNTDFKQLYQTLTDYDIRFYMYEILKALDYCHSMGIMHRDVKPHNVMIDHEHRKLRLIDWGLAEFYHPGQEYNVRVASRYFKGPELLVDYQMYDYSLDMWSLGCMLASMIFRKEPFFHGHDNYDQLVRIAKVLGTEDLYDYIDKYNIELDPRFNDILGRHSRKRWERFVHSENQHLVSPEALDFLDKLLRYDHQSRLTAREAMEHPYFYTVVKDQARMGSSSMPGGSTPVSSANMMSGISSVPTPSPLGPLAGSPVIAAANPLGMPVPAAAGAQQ
MAPKAPK3 (human), sequence (Q16644 whole entry, looked up): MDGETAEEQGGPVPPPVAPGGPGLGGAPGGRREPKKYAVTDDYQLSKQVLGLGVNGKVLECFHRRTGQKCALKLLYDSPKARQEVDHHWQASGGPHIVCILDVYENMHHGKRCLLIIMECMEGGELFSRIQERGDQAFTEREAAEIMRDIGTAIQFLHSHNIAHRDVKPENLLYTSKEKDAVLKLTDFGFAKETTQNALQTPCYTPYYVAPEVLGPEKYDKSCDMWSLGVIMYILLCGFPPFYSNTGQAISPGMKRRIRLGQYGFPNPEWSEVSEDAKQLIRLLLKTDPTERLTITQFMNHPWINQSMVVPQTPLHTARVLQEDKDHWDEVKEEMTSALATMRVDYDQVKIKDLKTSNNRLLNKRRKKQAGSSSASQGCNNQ
NEK6 (human), sequence (Q9HC98 whole entry, looked up): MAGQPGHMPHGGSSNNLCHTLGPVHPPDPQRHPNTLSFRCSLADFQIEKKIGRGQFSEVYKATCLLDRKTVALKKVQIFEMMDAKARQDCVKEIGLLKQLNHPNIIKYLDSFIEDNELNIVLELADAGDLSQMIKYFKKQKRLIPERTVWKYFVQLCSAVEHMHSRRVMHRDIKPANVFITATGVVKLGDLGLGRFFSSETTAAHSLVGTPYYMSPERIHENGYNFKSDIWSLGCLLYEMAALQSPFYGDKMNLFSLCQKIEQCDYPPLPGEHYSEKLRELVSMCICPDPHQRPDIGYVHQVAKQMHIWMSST
MARK3 (human), sequence (P27448 whole entry, looked up): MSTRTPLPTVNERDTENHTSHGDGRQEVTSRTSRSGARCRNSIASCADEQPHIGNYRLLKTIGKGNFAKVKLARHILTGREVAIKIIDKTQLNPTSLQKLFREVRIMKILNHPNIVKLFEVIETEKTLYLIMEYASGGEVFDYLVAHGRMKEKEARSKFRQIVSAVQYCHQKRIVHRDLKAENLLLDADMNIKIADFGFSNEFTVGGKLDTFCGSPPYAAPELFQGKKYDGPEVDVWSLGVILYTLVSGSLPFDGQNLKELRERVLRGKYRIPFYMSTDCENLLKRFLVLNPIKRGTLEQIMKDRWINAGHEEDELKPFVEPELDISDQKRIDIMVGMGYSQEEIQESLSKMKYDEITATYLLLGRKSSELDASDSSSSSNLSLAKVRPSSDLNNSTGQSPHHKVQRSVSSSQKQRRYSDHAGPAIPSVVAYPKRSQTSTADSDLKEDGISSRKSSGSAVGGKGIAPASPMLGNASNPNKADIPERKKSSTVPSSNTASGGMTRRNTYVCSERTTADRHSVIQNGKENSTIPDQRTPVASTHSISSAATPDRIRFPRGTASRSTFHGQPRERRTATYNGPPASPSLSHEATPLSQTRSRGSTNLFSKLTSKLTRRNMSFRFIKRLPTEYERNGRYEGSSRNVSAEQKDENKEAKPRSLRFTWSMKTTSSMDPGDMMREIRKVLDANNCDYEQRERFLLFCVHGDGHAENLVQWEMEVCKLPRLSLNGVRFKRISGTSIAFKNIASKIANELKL

residual activity (RPS6KA1 KD1 KD2 (human); compound 0.1 µM): 86%
residual activity (RPS6KA1 KD1 KD2 (human); compound 1.0 µM): 79%
residual activity (RPS6KA1 KD1 KD2 (human); compound 10.0 µM): 29%
residual activity (NEK6 (human); compound 0.1 µM): 80%
residual activity (NEK6 (human); compound 1.0 µM): 83%
residual activity (NEK6 (human); compound 10.0 µM): 88%
residual activity ([1]; compound 1.0 µM): 92%
residual activity ([1]; compound 10.0 µM): 84%
residual activity (CSNK2A1 (human); compound 0.1 µM): 90%
residual activity (CSNK2A1 (human); compound 1.0 µM): 89%
residual activity (CSNK2A1 (human); compound 10.0 µM): 81%
residual activity ([2]; compound 0.1 µM): 109%
residual activity ([2]; compound 1.0 µM): 98%
residual activity ([2]; compound 10.0 µM): 80%
residual activity (MAPKAPK3 (human); compound 0.1 µM): 80%
residual activity (MAPKAPK3 (human); compound 1.0 µM): 79%
residual activity (MAPKAPK3 (human); compound 10.0 µM): 86%
residual activity (MARK3 (human); compound 0.1 µM): 78%
residual activity (MARK3 (human); compound 1.0 µM): 34%
residual activity (MARK3 (human); compound 10.0 µM): 11%
residual activity (MAPK11 (human); compound 1.0 µM): 104%
residual activity (MAPK11 (human); compound 10.0 µM): 96%
residual activity (INSR (human); compound 0.1 µM): 105%
residual activity (INSR (human); compound 1.0 µM): 107%
residual activity (INSR (human); compound 10.0 µM): 93%
residual activity (INSRR (human); compound 0.1 µM): 82%
residual activity (INSRR (human); compound 1.0 µM): 68%
residual activity (INSRR (human); compound 10.0 µM): 37%
residual activity (JAK2 JH1 JH2 (human); compound 0.1 µM): 100%
residual activity (JAK2 JH1 JH2 (human); compound 1.0 µM): 104%
residual activity (JAK2 JH1 JH2 (human); compound 10.0 µM): 79%
residual activity (CSNK1D (human); compound 0.1 µM): 91%
residual activity (CSNK1D (human); compound 1.0 µM): 69%
residual activity (CSNK1D (human); compound 10.0 µM): 22%
residual activity (RIPK2 (human); compound 0.1 µM): 52%
residual activity (RIPK2 (human); compound 1.0 µM): 2%
residual activity (RIPK2 (human); compound 10.0 µM): 3%
residual activity (NTRK1 (human); compound 0.1 µM): 87%
residual activity (NTRK1 (human); compound 1.0 µM): 71%
residual activity (NTRK1 (human); compound 10.0 µM): 38%
residual activity (AURKA (human); compound 0.1 µM): 100%
residual activity (AURKA (human); compound 1.0 µM): 91%
residual activity (AURKA (human); compound 10.0 µM): 56%
residual activity (DYRK2 (human); compound 0.1 µM): 108%
residual activity (DYRK2 (human); compound 1.0 µM): 107%
residual activity (DYRK2 (human); compound 10.0 µM): 77%
residual activity (YES1 (human); compound 0.1 µM): 73%
residual activity (YES1 (human); compound 1.0 µM): 21%
residual activity (YES1 (human); compound 10.0 µM): 7%
residual activity (MAP3K1 (human); compound 0.1 µM): 90%
residual activity (MAP3K1 (human); compound 1.0 µM): 83%
residual activity (MAP3K1 (human); compound 10.0 µM): 60%
residual activity (HIPK2 (human); compound 0.1 µM): 93%
residual activity (HIPK2 (human); compound 1.0 µM): 91%
residual activity (HIPK2 (human); compound 10.0 µM): 56%
residual activity (HIPK1 (human); compound 0.1 µM): 97%
residual activity (HIPK1 (human); compound 1.0 µM): 99%
residual activity (HIPK1 (human); compound 10.0 µM): 85%
residual activity (FLT1 (human); compound 0.1 µM): 48%
residual activity (FLT1 (human); compound 10.0 µM): 0%
residual activity (IRAK4 (human); compound 0.1 µM): 88%
residual activity (IRAK4 (human); compound 1.0 µM): 91%
residual activity (IRAK4 (human); compound 10.0 µM): 53%
residual activity (PRKCA (human); compound 0.1 µM): 92%
residual activity (PRKCA (human); compound 1.0 µM): 96%
residual activity (PRKCA (human); compound 10.0 µM): 88%
residual activity (NEK2 (human); compound 0.1 µM): 118%
residual activity (NEK2 (human); compound 1.0 µM): 119%
residual activity (NEK2 (human); compound 10.0 µM): 79%
residual activity (MAPK1 (human); compound 0.1 µM): 89%
residual activity (MAPK1 (human); compound 1.0 µM): 89%
residual activity (MAPK1 (human); compound 10.0 µM): 107%
residual activity (MAPK14 (human); compound 0.1 µM): 78%
residual activity (MAPK14 (human); compound 1.0 µM): 84%
residual activity (MAPK14 (human); compound 10.0 µM): 75%
residual activity (RPS6KA5 KD1 KD2 (human); compound 0.1 µM): 91%
residual activity (RPS6KA5 KD1 KD2 (human); compound 1.0 µM): 83%
residual activity (RPS6KA5 KD1 KD2 (human); compound 10.0 µM): 87%
residual activity (BTK (human); compound 0.1 µM): 111%
residual activity (BTK (human); compound 1.0 µM): 94%
residual activity (BTK (human); compound 10.0 µM): 52%
residual activity ([3]; compound 0.1 µM): 77%
residual activity ([3]; compound 1.0 µM): 91%
residual activity ([3]; compound 10.0 µM): 58%
residual activity (MKNK2 (human); compound 0.1 µM): 90%
residual activity (MKNK2 (human); compound 1.0 µM): 60%
residual activity (MKNK2 (human); compound 10.0 µM): 34%
residual activity (MARK4 (human); compound 0.1 µM): 75%
residual activity (MARK4 (human); compound 1.0 µM): 58%
residual activity (MARK4 (human); compound 10.0 µM): 24%
residual activity (CLK2 (human); compound 0.1 µM): 67%
residual activity (CLK2 (human); compound 1.0 µM): 21%
residual activity (CLK2 (human); compound 10.0 µM): 5%
residual activity (SRPK1 (human); compound 0.1 µM): 95%
residual activity (SRPK1 (human); compound 1.0 µM): 116%
residual activity (SRPK1 (human); compound 10.0 µM): 79%
residual activity (MAP3K9 (human); compound 0.1 µM): 104%
residual activity (MAP3K9 (human); compound 1.0 µM): 70%
SMILES: c1ccc2c(-c3cnn4cc(-c5ccc(N6CCNCC6)cc5)cnc34)ccnc2c1
residual activity (MAPK15 (human); compound 0.1 µM): 87%
residual activity (MAPK15 (human); compound 1.0 µM): 49%
residual activity (MAPK15 (human); compound 10.0 µM): 11%

From the kinase profiling compilation of Christmann-Franck et al. (2016)
